Publication PMC5341770 (Nature microbiology, 2017)

Target: T1, WarA (PA4379) (Pseudomonas aeruginosa, UniProt Q9HW23)
T1 sequence (Q9HW23 1-227): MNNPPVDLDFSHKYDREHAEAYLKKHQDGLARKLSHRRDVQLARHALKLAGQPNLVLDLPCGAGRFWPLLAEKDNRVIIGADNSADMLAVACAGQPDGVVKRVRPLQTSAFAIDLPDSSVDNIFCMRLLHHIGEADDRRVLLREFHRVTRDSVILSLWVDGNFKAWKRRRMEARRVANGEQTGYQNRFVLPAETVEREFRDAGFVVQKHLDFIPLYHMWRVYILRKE
Conditions: methyl acceptor: LPS from a warA deletion mutant

C[S+](CC[C@H](N)C(=O)O)C[C@H]1O[C@@H](n2cnc3c(N)ncnc32)[C@H](O)[C@@H]1O (stereo partly drawn) [S-adenosyl-L-methionine]
fluorescent methyltransferase activity kit: using S-adenosyl-L-methionine as the methyl group donor and measuring activity in relative fluorescent units
